Laboratory results as given in US5298519A, “Acylals of imidazole-5-carboxylic acid derivatives, and their use as angiotensin (II) inhibitors” (priority 1991, dated 1994).

Key:
[1] = molecular target: angiotensin II-1 subtype receptor; experiment: affinity for angiotensin II-1 subtype receptor on rat adrenal cortex microsomes (3H-DuP 753); type: binding; details: adrenal cortex microsomes of rats
Description: The affinity of the substances for the angiotensin II-1 subtype receptor was determined on adrenal cortex microsomes of rats (system: ^3 H-DuP 753).

angiotensin II [2] = experiment: pithed rats, inhibition of hypertensive action of angiotensin II; type: in vivo, rat
Excerpt: FIGS. 2a), b) and c) depict the effect of the presently claimed and known intravenously administered compounds on angiotensin II induced increases on diastolic blood pressure in pithed rats.
FIGS. 3a), b) and c) depict the effect of known and claimed intraduodenally administered compounds on angiotensin II induced increases of diastolic blood pressure in pithed rats.
FIG. 4 depicts further the effect of known and prior art intraduodenally administered compounds on angiotensin II induced increases of diastolic blood pressure in pithed rats.

angiotensin II [3] = experiment: anaesthetized, normotensive rats, duration of action against angiotensin II after intraduodenal administration; type: in vivo, rat; details: for time to maximum angiotensin antagonistic action: after intraduodenal administration, Example 1 at 3 mg/kg
Description: FIG. 5 depicts the effect of known and prior art intraduodenally administered compounds on angiotensin II induced increases of mean arterial blood pressure in anaesthetized, normotensive rats.
FIGS. 6a) and b) depict the effect of known and prior art intraduodenally administered compounds on antiotensin II induced increases in mean arterial blood pressure in normotensive rats.
The duration of action of the substance was determined in anaesthetized, normotensive rats. Angiotensin II (1 μg.kg) was administered intravenously before substance administration and at 15 minute intervals after intraduodenal substance administration.

angiotensin II receptor [4] = details: cited from earlier work
angiotensin II receptor [5] = experiment: isolated rat aorta, inhibition of maximum contraction due to angiotensin II; type: cell-based; details: for inhibition at 0.1 µM / inhibition at 0.01 µM / inhibition at 0.001 µM: Rattus norvegicus, angiotensin II 3 × 10^-7 mol/l; for inhibition at 0.1 µM: 10^-7 mol/l compound; for inhibition at 0.01 µM: 10^-8 mol/l compound; for inhibition at 0.001 µM: 10^-9 mol/l compound
Excerpt: FIGS. 1a) and b) depict the action of a compound according to the present invention and a compound of the prior art on the contractile force of an isolated rat aorta.
Isolated rat aorta: % inhibition of the maximum contraction

[6] = anaesthetized normotensive rats, intraduodenal

| SMILES | IC50 [1] [nM] | type of inhibition of the hypertensive action of angiotensin II (angiotensin II [2]) | sequence of potency (angiotensin II [2]; intraduodenal) | time to maximum angiotensin antagonistic action (angiotensin II [3]) [min] | sequence of potency (angiotensin II [3]; [6]) | conversion on in vivo administration (angiotensin II receptor [4]; in vivo) | inhibition at 0.1 µM (angiotensin II receptor [5]) [%] | inhibition at 0.01 µM (angiotensin II receptor [5]) [%] | inhibition at 0.001 µM (angiotensin II receptor [5]) [%] | type of angiotensin II receptor antagonism (angiotensin II receptor [5]; isolated rat aorta) | reduction of the maximum contraction due to angiotensin II (in words) (angiotensin II receptor [5]; isolated rat aorta, 10^-9 -10^-7 mol/l) | contribution to the duration of action of DuP 753 (angiotensin II receptor [4]; in vivo) | type of antagonism (angiotensin II receptor [4]; metabolite of DuP 753) | potency after intraduodenal administration (angiotensin II [2]; intraduodenal) | potency relative to EXP 3174 (angiotensin II [2]; intravenous, Example 1 0.3-10 mg/kg) | potency relative to DuP 753 (angiotensin II [2]; intravenous, Example 1 0.3-10 mg/kg, DuP 753 1-10 mg/kg) | effectiveness relative to 10 mg/kg of DuP 753 (angiotensin II [3]; 3 mg/kg of Example 1, intraduodenal, anaesthetized normotensive rats) | onset of action (angiotensin II [3]; intraduodenal, normotensive rats) |
| --- | --- | --- | --- | --- | --- | --- | --- | --- | --- | --- | --- | --- | --- | --- | --- | --- | --- | --- |
| CCCCc1nc(Cl)c(CO)n1Cc1ccc(-c2ccccc2-c2nnn[nH]2)cc1 [DuP 753, 2-n-butyl-4-chloro-5-hydroxymethyl-1-((2'-(1H-tetrazol-5-yl)biphenyl-4-yl)methyl)imidazole] | 7.24 | competitive inhibition, that is to say to a parallel shift to the right of the dose-response curve of angiotensin II without a reduction in the maximum effect | Example 1>DuP 753>EXP 3174 | 30 to 60 | Example 1>DuP 753 | converted on in vivo administration to a non-competitive metabolite EXP 3174 |  |  |  |  |  |  |  |  |  |  |  |  |
| CCCCc1nc(Cl)c(C(=O)O)n1Cc1ccc(-c2ccccc2-c2nnn[nH]2)cc1 [EXP 3174, 2-n-butyl-4-chloro-1-((2'-(1H-tetrazol-5-yl)biphenyl-4-yl)methyl)imidazole-5-carboxylic acid] | 7.87 | in a non-competitive manner | Example 1>DuP 753>EXP 3174 |  |  |  | 100 | 95 | 76 | selective, non-competitive angiotensin II receptor antagonists | acting in a comparatively more potent manner | responsible to a large extent for the duration of action of DuP 753 | non-competitive |  |  |  |  |  |
| CCCCc1nc(Cl)c(C(=O)OC(C)OC(=O)OCC)n1Cc1ccc(-c2ccccc2-c2nn[nH]n2)cc1 (stereo not drawn) [Example 1] | 79.4 | in a non-competitive manner | Example 1>DuP 753>EXP 3174 | 15 | Example 1>DuP 753 |  | 98 | 72 | 63 | selective, non-competitive angiotensin II receptor antagonists |  |  |  | by far the most potent substance | about as potent as EXP 3174 | slightly more potent than DuP 753 | about twice as effective as 10 mg/kg of DuP 753 | particularly rapid, dose-dependent onset of action |
